Laboratory results: the supplement of paper PMC3974653
Counter-ions that a name gives are not always drawn.

System: MTT (mouse pheochromocytoma)
Experiment: IC50 of cell viability (ATP content)
Details: (24 or 48 h)
In short: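 MTT mouse pheochromocytoma cells, cultured overnight at 37°C, 5% CO2 in DMEM with 5% FBS and 1% horse serum, were exposed in white 1536-well plates to library compounds in DMSO at final 0.5 nM to 46 µM (8 concentrations) for 24 or 48 hrs. CellTiter-Glo luminescence was normalised to positive-control (100%) and DMSO (0%) wells. A four-parameter logistic fit gave the IC50.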

SMILES | IC50 of cell viability
N=C(N)NCc1cccc(I)c1.N=C(N)NCc1cccc(I)c1.O=[S+]([O-])(O)O [m-Iodobenzylguanidine hemisulfate] | > 46 µM
O=C(O)Cc1ccccc1 [a-Toluic acid] | > 46 µM
CN1C(=S)CN=C(c2ccccc2)c2cc(Cl)ccc21 [Sulazepam] | > 46 µM
Nc1ccc(Cl)cc1 [p-Chloroaniline] | > 46 µM
C[C@]12N[C@H](Cc3ccccc31)c1ccccc12 [(+)-MK 801] | > 46 µM
CCCCCC1Nc2cc(C(F)(F)F)c([S+](N)(=O)[O-])cc2[S+](=O)([O-])N1 (configuration not stated) [PENFLUTIZIDE] | > 46 µM
Cc1ccc(O)cc1 [p-Cresol] | > 46 µM
OCCCBr [3-Bromo-1-propanol] | > 46 µM
O=P([O-])(O)C(O)(Cc1cccnc1)P(=O)([O-])O [Acide risedronique] | > 46 µM
ClC=C(Cl)Cl [Trichloroethylene] | > 46 µM
CCNC(=O)NCCCOc1cccc(CN2CCCCC2)c1 [DALCOTIDINE] | > 46 µM
NP(N)(=O)NC(=O)c1ccc(F)cc1 [Flurofamide] | > 46 µM
CC1CC(=O)N/N=C1/C2=CC=C(NCC(C)(C)NCC(O)COC3=C(C=CC(=C3)Cl)C#N)C=C2 (configuration not stated) [Oberadilol] | > 46 µM
C[C@H]1C[C@H]2[C@@H]3CCC4=CC(=O)C=C[C@]4(C)[C@@]3(Cl)[C@@H](O)C[C@]2(C)[C@@]1(O)C(=O)CO [Beclomethasone] | > 46 µM
BrC1=C2N=CC=NC2=CC=C1N\C3=N\CCN3 [UK 14,304] | > 46 µM
CN[C@@H](C)CC\C=C(/C)C.CN[C@@H](C)CC\C=C(/C)C.O[C@@H]([C@@H](O)[C@@H](O)C(O)=O)[C@H](O)C(O)=O [Isometheptene mucate] | > 46 µM
C[C@H]\1C[C@H]2[C@H]3CC[C@](O)(C(=O)CO)[C@]3(C)C[C@@H](O)[C@@H]2[C@]4(C)\C=C/C(=O)/C=C14 [Methylprednisolone, 6-alpha] | > 46 µM

Continued, values first:

IC50 of cell viability | SMILES
> 46 µM | CN1CCO[C@H](c2ccccc2)c2ccccc2C1 [Nefopam hydrochloride]
> 46 µM | [O]=[Bi][O][Bi]=[O] [BISMUTH OXIDE]
> 46 µM | CCC(=O)O.CCC(=O)O.O=C(Nc1cccc(C2=NCCN2)c1)Nc1cccc(C2=NCCN2)c1 [Imidocarbe]
> 46 µM | CN1N(C(=O)/C=C1/C)C2=CC=CC=C2 [Phenazone]
> 46 µM | O=C(O)CCc1nc2ccccc2[nH]1 [PROCODAZOLUM]
> 46 µM | CC(=O)Oc1cc(C(C)C)c(OCCN(C)C)cc1C [Moxisylyte hydrochoride]
> 46 µM | CC(C)CCCC(C)N (configuration not stated) [OCTODRINUM]
> 46 µM | Clc1ccc(C(Cn2ccnc2)OCc2ccsc2Cl)c(Cl)c1 (configuration not stated) [TIOCONAZOLE]
> 46 µM | N[C@H](CC(=O)O)C(=O)O [D-ASPARTIC ACID]
> 46 µM | C[C@H]1C[C@H]2[C@@H]3CCC4=CC(=O)C=C[C@]4(C)[C@@]3(F)[C@@H](O)C[C@]2(C)[C@@]1(O)C(=O)CO [Betamethasone]
> 46 µM | CCOC(=O)OCC/C(SC(=O)OCC)=C(\C)N(C=O)Cc1cnc(C)nc1N [CETOTIAMINE HYDROCHLORIDE]
> 46 µM | CCCN(CC)[C@@H](CC)C(=O)Nc1c(C)cccc1C [Etidocaine]
> 46 µM | COc1ccccc1N1CCN(CCCC(=O)c2ccc(F)cc2)CC1 [FLUANISONUM]
> 46 µM | C[S+](=O)([O-])OCCC[NH2+]CCCO[S+](C)(=O)[O-] [Improsulfan tosylate]
> 46 µM | Cn1cc(C(=O)[C@@H]2CCc3[nH]cnc3C2)c2ccccc21 [RAMOSETRON HYDROCHLORIDE]
